According to ChEMBL document CHEMBL1124815, “Novel piperidine derivatives. Synthesis and anti-acetylcholinesterase activity of 1-benzyl-4-[2-(N-benzoylamino)ethyl]piperidine derivatives” (J Med Chem, 1990):

How the values were obtained:
[1] = molecular target: T1, Acetylcholinesterase (Mus musculus, UniProt P21836); test: Inhibitory activity against mouse brain Acetylcholinesterase
T1 sequence (P21836 whole entry): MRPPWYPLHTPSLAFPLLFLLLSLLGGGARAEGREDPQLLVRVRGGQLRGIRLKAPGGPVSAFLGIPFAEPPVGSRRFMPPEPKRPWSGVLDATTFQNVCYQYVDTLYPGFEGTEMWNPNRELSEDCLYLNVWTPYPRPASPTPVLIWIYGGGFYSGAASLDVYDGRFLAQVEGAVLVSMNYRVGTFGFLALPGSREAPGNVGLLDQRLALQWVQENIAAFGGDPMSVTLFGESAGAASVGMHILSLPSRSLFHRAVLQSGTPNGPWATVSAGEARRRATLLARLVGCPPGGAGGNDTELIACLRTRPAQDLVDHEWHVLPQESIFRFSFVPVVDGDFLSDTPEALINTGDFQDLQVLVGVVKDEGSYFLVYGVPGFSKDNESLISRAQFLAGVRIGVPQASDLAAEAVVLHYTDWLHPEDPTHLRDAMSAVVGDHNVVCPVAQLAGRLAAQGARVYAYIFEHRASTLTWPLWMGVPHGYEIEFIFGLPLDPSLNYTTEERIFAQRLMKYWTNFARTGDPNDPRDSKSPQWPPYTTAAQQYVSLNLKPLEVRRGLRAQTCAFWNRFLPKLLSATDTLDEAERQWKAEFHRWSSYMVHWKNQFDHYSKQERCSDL

[2] = molecular target: T2, Acetylcholinesterase (Mus musculus) (UniProt P21836); test: Reversibility of Acetylcholinesterase enzyme inhibition by compound (0.27 uM) after dialysis
T2 sequence (whole entry): T1 sequence (P21836 whole entry)

[3] = molecular target: T2, Acetylcholinesterase (Mus musculus); test: Reversibility of Acetylcholinesterase enzyme inhibition by compound (0.27 uM) before dialysis
[4] = molecular target: T2, Acetylcholinesterase (Mus musculus); test: Reversibility of Acetylcholinesterase enzyme inhibition by compound (0.91 uM) after dialysis
[5] = molecular target: T2, Acetylcholinesterase (Mus musculus); test: Reversibility of Acetylcholinesterase enzyme inhibition by compound (0.91 uM) before dialysis
[6] = molecular target: T2, Acetylcholinesterase (Mus musculus); test: Reversibility of Acetylcholinesterase enzyme inhibition by compound (91 uM) after dialysis
[7] = molecular target: T2, Acetylcholinesterase (Mus musculus); test: Reversibility of Acetylcholinesterase enzyme inhibition by compound (91 uM) before dialysis
[8] = molecular target: Butyrylcholinesterase (Rattus norvegicus, UniProt Q9JKC1); test: Inhibitory activity against rat butyrylcholinesterase enzyme (BuChE)
Sequence of Butyrylcholinesterase (Q9JKC1 whole entry): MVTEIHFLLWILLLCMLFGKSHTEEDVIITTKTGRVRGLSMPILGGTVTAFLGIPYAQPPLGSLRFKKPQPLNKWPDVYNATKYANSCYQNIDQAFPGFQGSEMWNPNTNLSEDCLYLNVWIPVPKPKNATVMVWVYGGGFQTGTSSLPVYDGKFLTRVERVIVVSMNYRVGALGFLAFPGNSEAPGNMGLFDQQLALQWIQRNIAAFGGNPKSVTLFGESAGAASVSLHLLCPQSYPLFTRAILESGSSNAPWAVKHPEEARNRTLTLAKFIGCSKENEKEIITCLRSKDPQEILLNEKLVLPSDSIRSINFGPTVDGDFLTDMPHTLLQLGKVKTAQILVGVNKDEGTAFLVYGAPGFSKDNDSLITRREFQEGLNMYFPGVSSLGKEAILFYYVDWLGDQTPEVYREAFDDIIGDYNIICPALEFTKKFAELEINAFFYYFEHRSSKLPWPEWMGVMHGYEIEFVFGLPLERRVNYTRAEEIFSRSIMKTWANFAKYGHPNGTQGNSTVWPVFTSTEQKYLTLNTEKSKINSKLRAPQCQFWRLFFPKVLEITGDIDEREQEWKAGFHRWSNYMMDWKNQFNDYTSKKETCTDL

Row | Compound | IC50 [1] [nM] | also measured
1 | O=C(c1ccc(S(=O)(=O)Cc2ccccc2)cc1)N(CCC1CCN(Cc2ccccc2)CC1)c1ccccc1 | 0.6 | –
2 | O=Cc1ccc(C(=O)NCCC2CCN(Cc3ccccc3)CC2)cc1 | 120 | –
3 | O=C(CCCC1CCN(Cc2ccccc2)CC1)c1ccccc1 | 530 | –
4 | CCN(CCC1CCN(Cc2ccccc2)CC1)C(=O)c1ccc(S(=O)(=O)Cc2ccccc2)cc1 | 0.3 | –
5 | COc1ccc(C(=O)NCCC2CCN(Cc3ccccc3)CC2)cc1 | 88 | –
6 | Cc1ccc(C(=O)NCCC2CCN(Cc3ccccc3)CC2)cc1 | 180 | –
7 | CCN(CCC1CCN(Cc2ccccc2)CC1)C(=O)c1ccccc1 | 130 | –
8 | O=C(NCCC1CCN(Cc2ccccc2)CC1)c1ccccc1[N+](=O)[O-] | 880 | –
9 | Cc1cccc(C(=O)NCCC2CCN(Cc3ccccc3)CC2)c1 | 470 | –
10 | O=C(NCCC1CCN(Cc2ccccc2)CC1)c1cccnc1 | 69 | –
11 | O=C(NCCC1CCN(Cc2ccccc2)CC1)c1cc[n+]([O-])cc1 | 155 | –
12 | c1ccc(CNCCC2CCN(Cc3ccccc3)CC2)cc1 | 46000 | –
13 | O=C(NCCC1CCN(Cc2ccccc2)CC1)c1ccc(F)cc1 | 85 | –
14 | O=C(NCCC1CCN(Cc2ccccc2)CC1)c1ccncc1 | 39 | –
15 | CC(=O)c1ccc(C(=O)NCCC2CCN(Cc3ccccc3)CC2)cc1 | 51 | –
16 | Cc1ccccc1C(=O)NCCC1CCN(Cc2ccccc2)CC1 | 1000 | –
17 | O=C(NCCC1CCN(Cc2ccccc2)CC1)C1CCCCC1 | 1600 | –
18 | O=C(NCCC1CCN(Cc2ccccc2)CC1)c1cccc([N+](=O)[O-])c1 | 230 | –
19 | CN(CCC1CCN(Cc2ccccc2)CC1)C(=O)c1ccc(S(=O)(=O)Cc2ccccc2)cc1 | – | Reversibility [2]: 17.7; Reversibility [3]: 9.1; Reversibility [4]: 17.8; Reversibility [5]: 5.42; Reversibility [6]: 16.5; Reversibility [7]: 2.59; IC50 [8]: 10100 nM
20 | O=C(c1ccccc1)N(CCC1CCN(Cc2ccccc2)CC1)Cc1ccccc1 | 940 | –
21 | O=C(NCCC1CCN(Cc2ccccc2)CC1)c1ccccn1 | 800 | –
22 | O=C(NCCC1CCN(Cc2ccccc2)CC1)c1ccc(S(=O)(=O)Cc2ccccc2)cc1 | 29 | –
23 | O=C(c1ccccc1)N(CCC1CCN(Cc2ccccc2)CC1)c1ccccc1 | 35 | –
24 | O=C(NCCC1CCN(Cc2ccccc2)CC1)c1ccc(Cl)cc1 | 180 | –
